Data taken from a melting point compilation (Tetko et al.; mined from patent text by program, amines drawn as free bases though some values may be those of a salt).

melting point | Compound
90 to 91 °C | c1cnc(N2CCN(Cc3ccc4c(c3)SCO4)CC2)nc1
285 to 286 °C | O=C(O)c1ccc2c(c1)Cc1cccnc1O2
90 °C | COc1ccc(C2CCCCC2=O)cc1 (stereo unspecified)
207 to 209 °C | CN(C)C(=O)c1cc(-c2ccccc2)c(=O)n2c1-c1ccccc1C2
269 to 275 °C | Cc1cc2n(n1)C(c1cccc([N+](=O)[O-])c1)N=N2 (stereo unspecified)
225 to 227 °C | Cc1cn(-c2cc(NC(=O)c3ccc(Cl)c(C#Cc4ccc(NC5CCC5)nn4)c3)cc(C(F)(F)F)c2)cn1
137 to 138 °C | ONC=Nc1ccc(N2CCSCC2)c(Cl)c1
120 °C | Cc1cccc2c1NC(=O)CC2(C)C
178 to 180 °C | CC(C)NC1=NS(=O)(=O)c2ccc(S(=O)(=O)c3ccccc3)cc2N1
87 to 88 °C | O=c1c2ccccc2ccc2ccc(SC(F)(F)F)cc12
157 to 158 °C | O=C1CC(c2ccccc2)CN1C(=O)c1ccc(Cl)cc1 (stereo unspecified)
226 to 228 °C | COc1cc2cc([N+](=O)[O-])c(OCc3ccccc3)cc2oc1=O
180 °C | COc1ccc(Br)c(C(=O)N2CCN(S(=O)(=O)c3ccccc3)CC2)c1
148 to 150 °C | O=C(O)c1ccc(CN(C(=O)Nc2cc(C(F)(F)F)cc(C(F)(F)F)c2)c2ccc(C3CCCCC3)cc2)cc1
114 °C | CCCC/C=C/C(=O)N(C)c1ccc(S(=O)(=O)NC2CCCCCC2)cc1
100 to 102 °C | C=C(C)C(=O)Oc1cccc(O)c1O
240 to 241 °C | CC(=O)N(C)c1ccc2sc3ccc(Br)cc3c(=O)c2c1
142 to 143 °C | O=c1c(N2CCNCC2)nc2ccc(F)cc2n1-c1ccccc1
134 °C | CN1CC(CN)Oc2c(-c3cccc(Cl)c3)cccc21 (stereo unspecified)
102 to 104 °C | O=C1CC(c2ccc(C3CCCCCC3)cc2)C(=O)O1 (stereo unspecified)

melting point | Compound
210 to 212 °C | CC(=O)Nc1ccc(CC(=S)N2CCOCC2)cc1
85 to 86 °C | CN(C)c1ccc(S(=O)c2ccccc2)cc1N (stereo unspecified)
130 °C | NC[C@@H]1CNc2cccc(-c3cc(Cl)ccc3Cl)c2O1
129 to 130 °C | COCCOc1ccc(C(=O)C(=O)O)cc1
159 to 160 °C | O=C1C2CCCCN2C(=S)N1c1ccc(F)cc1F (stereo unspecified)
115 to 117 °C | CN1C(=O)CCN(c2ccc(C(F)(F)F)cc2)C1=O
168 to 169 °C | N#Cc1cc(Cl)ccc1-c1ccc(C(O)CCC(=O)O)cc1 (stereo unspecified)
178 to 179 °C | c1csc(-c2n[nH]c3c2Cc2cc(CN4CCOCC4)ccc2-3)c1
193 to 196 °C | COc1ccc(C(=O)NC(=S)Nc2ccccc2C(N)=O)cc1
> 270 °C | CCCn1c(=O)c2[nH]c(/C=C/c3ccc4c(c3)OCO4)nc2n(CCC)c1=O
200 to 202 °C | COc1cc2nc(N3CCN(C(=O)NC4CCCC4)CC3)nc(N)c2cc1OC
174 to 177 °C | O=C(O)C1CCCC(NC(=O)C(CS)Cc2ccccc2)C1 (stereo unspecified)
96 to 99 °C | CCN1CCN(C(=O)c2ccc([N+](=O)[O-])cc2C)CC1
154 to 156 °C | COCCOc1cc(N)c(Cl)cc1C(=O)NCC12CCCN(CCC1)C2
126 to 128 °C | CSCCN1C(=O)c2ccccc2Oc2nc(Cl)ccc21
115 to 116 °C | CC(=O)Oc1ccc(CCc2ccc(OC(C)=O)cc2)cc1
70 to 73 °C | CC(C)=CCCOc1c(-c2ccc(S(N)(=O)=O)cc2)cnn(-c2ccc(F)c(F)c2)c1=O
208 to 210 °C | CCc1c(C(=O)O)ccc(OCc2ccccc2)c1Cl
168 °C | CC1(C)CCC(=O)Nc2ccc(N)cc21

More lines, now with the values behind:

Compound | melting point
O=C(c1cccc([N+](=O)[O-])c1)n1c2cc(O)c(O)cc2c2ccc(O)c(O)c21 | 275 to 279 °C
COC(=O)c1cccc(-c2nc(COc3ccc(COc4nn(-c5ccccc5)cc4C=O)cc3)c(C)o2)c1 | 161 to 162 °C
CN(C(=O)c1cn2ccc(-c3ccc(Cl)cc3)cc2n1)C(Cc1ccc(OCc2ccccc2)cc1)C(=O)O (stereo unspecified) | 222 °C
CC(C)Nn1nnnc1S | 92 to 95 °C
COc1ccc(-c2nc(N3CCN(C)CC3)c3c(C)c(C#N)sc3n2)cc1OC | 208 to 209 °C
N#Cc1ccc(OCc2ccc(C=Cc3ccncc3)cc2)cc1 | 149 to 150 °C
CC(C)(C)C1=CC(=CC#Cc2ccc(C(=O)O)c(O)c2)C=C(C(C)(C)C)C1=O | 203 °C
CCn1c(=O)c2c(nc(/C=C/c3ccc(OCC(C)=O)c(OC)c3)n2C)n(CC)c1=O | 206 °C
C=CCCCCCCCCC(=O)N1CCN(c2cc(N)nc(N)n2)CC1 | 100 to 104 °C
Cc1cc2cn[nH]c2c(C(=O)NC(C)C)c1NC(=O)c1cc(Br)nn1-c1ncccc1Cl | 163 to 166 °C
Fc1ccc(Oc2ccc(-c3ccn(-c4ncccn4)n3)cc2)cc1 | 123 to 125 °C
NNC(=S)N1CCN(c2nc3cccccc-3n2)CC1 | 224 to 228 °C
OC1=Cc2ccccc2C=Cc2ccccc21 | 120 to 121 °C
CCn1cc(C2(c3cccc(-c4cccnc4F)c3)N=C(N)N(C)C2=O)cc1C=O (stereo unspecified) | 152 to 156 °C
Cc1nc(O)c([N+](=O)[O-])c(N2CCc3cncnc3CC2)n1 | > 200 °C
CC(=O)Oc1ccccc1C(=O)Nc1nc(S(C)=O)cs1 (stereo unspecified) | 167 to 169 °C
CC=CC(=O)Nc1cc(C(C)(C)C)c(O)c(C(C)(C)C)c1 | 211 to 214 °C
NC1=CC([N+](=O)[O-])C(N)(CC(F)(F)F)C=C1 (stereo unspecified) | 104 to 106 °C
CC(O)=C(C#N)C(=O)Nc1ccccc1 | 134 to 135 °C
CC(C)(C)NS(=O)(=O)c1cc(C(=O)O)ccc1C(=O)O | 210 to 213 °C
COc1cc2cc(C#N)c(N)cc2cc1OCc1ccccc1 | 241 to 243 °C

Compound | melting point
Cc1sc(C(N)=O)c2c1-c1c(cnn1Cc1ccccc1)CC2 | 205 to 206 °C
CCCC(=O)COS(=O)(=O)c1c(C)cc(C)c(C)c1C | 49 to 50 °C
CC(CCC(=O)N(C)C)C1CC=C2C3=C(CCC21C)C1(C)CCC(O)C(C)(C)C1CC3 (stereo unspecified) | 192 to 195 °C
CCCC(Br)c1nc2ccccc2n1Cc1ccc(C#N)cc1 (stereo unspecified) | 135 °C
COC(=O)c1ccc(OCCNC(=O)C2Cc3ccccc3N2S(=O)(=O)c2ccc(-c3cc(C(F)(F)F)ccc3Cl)cc2)cc1Cl (stereo unspecified) | 70 to 76 °C
COc1ccc(CC(=O)Cc2ccc(OC)cc2)cc1 | 75 to 76 °C
NC(=NO)c1c(F)ccc(OCc2nc3cc(Cl)ccc3s2)c1F | 169 to 170 °C
Cc1ccc(S(=O)(=O)n2c(CCC(=O)O)cc3cc(Cl)ccc32)cc1 | 165 to 168 °C
CCCCc1nn(-c2cc(NC(=O)NCCC)ccc2Cl)c(=O)n1Cc1ccc(-c2ccccc2S(=O)(=O)NC(=O)c2ccccc2Cl)cc1 | > 208 °C
CCCc1cc(=O)n(-c2cc(OC(C)C)c(Cl)cc2F)c(=O)n1C | 115 to 117 °C
CC(C)(CF)c1cc(Cl)nnc1Cl | 36 to 38 °C
CS(=O)(=O)O[C@H]1CCNC1=O | 122 to 124 °C
CC1=C(C(=O)Nc2ccccn2)C(c2ccccc2Cl)C(C(=O)OCCCCn2c(C)nc3cnccc32)=C(c2ccc(F)cc2)N1 (stereo unspecified) | 129 to 132 °C
C[Si](C)(O[Si](C)(C)c1cccnc1F)c1cccnc1F | 41 to 42 °C
Cc1cccc(NC(=O)NC(C(=O)N(c2ccccc2)c2ccccc2)c2ccccc2)c1 (racemic) | 181 °C
CCCCc1ncc(C(=O)OC)c(=O)n1Cc1ccc(-c2ccccc2C(=O)O)cc1 | 166 to 168 °C
Cc1nc(SCc2ncccc2C(=O)O)sc1CC(=O)O | 225 to 227 °C
CCOC(=O)c1ccc(NCCCCCCCc2ccccc2)cc1 | 65 to 67 °C
O=C(CC(=O)c1cccc(C(F)(F)F)c1NC(=O)C(F)F)Nc1nccs1 | 206 °C
CC(c1ccc(O)cc1)(c1ccc(O)cc1)c1ccc(-c2ccccc2)cc1 | 182 to 183 °C
CCOc1ccc(OCC(C)(NS(=O)(=O)Cc2ccccc2)C(=O)N(C)OC)cc1 (stereo unspecified) | 179 to 181 °C

Compound | melting point
CC(O)COc1cccc([N+](=O)[O-])c1C#N (stereo unspecified) | 121 to 124 °C
COc1cc(I)c(C(C)=O)cc1O | 109 to 111 °C
CN1C(C)(C)CC(O[Si](c2ccccc2)(c2ccccc2)c2ccccc2)CC1(C)C | 109 to 110 °C
CCCCCCCCCCc1cc2c(s1)NC(=O)CN=C2c1ccccc1C | 100 to 102 °C
CC(NC(Nc1cc(F)cc(C(F)(F)F)c1)=C(C#N)S(C)(=O)=O)C(C)(C)C (stereo unspecified) | 183 to 185 °C
CC1CCCN1CCCN1CCN(CCN2CCCC2)C1=C(C#N)C#N (stereo unspecified) | 95 to 96 °C
CSCC[C@H](NC(=O)OC(C)(C)C)C(=O)Oc1ccc(NC(C)=O)cc1 | 225 to 228 °C
CC12CC(F)C3C4CCC(=O)C=C4C=CC3C1CCC2=O (stereo unspecified) | 198 °C
CN(C(=O)OC(C)(C)C)c1sc(-c2cccnc2)nc1Br | 88 to 91 °C
CCCc1nn(C)c(C(N)=O)c1NC(=O)c1ccccc1OCC | 153 to 154 °C
CCC(C)n1cc(Cl)nc(N2CCc3cc(OC)cc(C)c32)c1=O (stereo unspecified) | 176 to 178 °C
CN1CN(c2ccccc2)C2(CCN(CCCC(=O)c3ccc(F)cc3I)CC2)C1=O | 115 to 118 °C
CCN(CC)CCOc1cccc2c1c1cccc(Cl)c1n2Cc1ccc(F)cc1 | 104 to 106 °C
O=c1[nH]c2ccccc2cc1-c1csc(-c2ccncc2)n1 | 241 to 243 °C
CC(CS)C(=O)N1C(=O)CC[C@H]1C(=O)O (stereo partly specified) | 101 to 108 °C
CCn1cc(C(=O)O)c(=O)c2c(F)c(F)c(N3CCN(C)CC3)c(F)c21 | 221 to 223 °C
CN1C(C)(C#N)CCC1(C)C#N (stereo unspecified) | 81 to 83 °C
CN(C)C=CC(=O)c1cncnc1 | 133 to 135 °C
COC(=O)Cc1ccc(OCCNC(=O)C2Cc3ccccc3N2S(=O)(=O)c2ccc(-c3ccc(F)cc3)c(C(F)(F)F)c2)cc1 (stereo unspecified) | 60 °C
CCOC(=O)Cc1c(C)[nH]c(C(=O)c2ccccc2)c1C | 126 to 129 °C
